# Assay results from ChEMBL document CHEMBL5223092, “Antibacterial activities of plant-derived xanthones” (RSC Med Chem, 2022).
# Tests used:
# [1] = system: Staphylococcus epidermidis; test: Antibacterial activity against Staphylococcus epidermidis ATCC 12228 incubated for 16 to 18 hrs by Mueller-Hinton broth based two-fold serial dilution method
# [2] = system: Salmonella typhimurium; test: Antibacterial activity against Salmonella typhimurium TISTR 292 incubated for 16 to 18 hrs by Mueller-Hinton broth based two-fold serial dilution method; type: functional, Salmonella enterica subsp. enterica serovar Typhimurium; conditions: Salmonella enterica, time 16-18 hrs
# [3] = system: Bacillus cereus; test: Antibacterial activity against Bacillus cereus TISTR 688 incubated for 16 to 18 hrs by Mueller-Hinton broth based two-fold serial dilution method; type: functional; conditions: time 16-18 hrs
# [4] = system: Pseudomonas aeruginosa; test: Antibacterial activity against Pseudomonas aeruginosa TISTR 781 incubated for 16 to 18 hrs by Mueller-Hinton broth based two-fold serial dilution method; type: functional; conditions: time 16-18 hrs
# [5] = system: Escherichia coli; test: Antibacterial activity against Escherichia coli TISTR 780 incubated for 16 to 18 hrs by Mueller-Hinton broth based two-fold serial dilution method; type: functional; conditions: time 16-18 hrs
# [6] = system: Micrococcus luteus; test: Antibacterial activity against Micrococcus luteus TISTR 1466 incubated for 16 to 18 hrs by Mueller-Hinton broth based two-fold serial dilution method; type: functional; conditions: time 16-18 hrs
# [7] = system: Micrococcus luteus; test: Antibacterial activity against Micrococcus luteus ATCC 9341 incubated for 20 hrs by Mueller-Hinton broth based agar based dilution method; type: functional
# [8] = system: Bacillus subtilis; test: Antibacterial activity against Bacillus subtilis PCI 219 incubated for 20 hrs by Mueller-Hinton broth based agar based dilution method; type: functional
# [9] = system: Enterococcus faecalis; test: Antibacterial activity against Enterococcus faecalis JU 1856 incubated for 20 hrs by Mueller-Hinton broth based agar based dilution method; type: functional
# [10] = system: Staphylococcus aureus; test: Antibacterial activity against methicillin sensitive Staphylococcus aureus JCM 2874 incubated for 20 hrs by Mueller-Hinton broth based agar based dilution method; type: functional
# [11] = system: Enterococcus faecalis; test: Antibacterial activity against Enterococcus faecalis JCM 7783 incubated for 20 hrs by Mueller-Hinton broth based agar based dilution method; type: functional
# [12] = system: Staphylococcus aureus; test: Antibacterial activity against methicillin resistant Staphylococcus aureus incubated for 20 hrs by Mueller-Hinton broth based agar based dilution method; type: functional
# [13] = system: Enterococcus faecalis; test: Antibacterial activity against Enterococcus faecalis JU 1782 incubated for 20 hrs by Mueller-Hinton broth based agar based dilution method; type: functional
# [14] = system: Staphylococcus aureus; test: Antibacterial activity against Staphylococcus aureus; type: functional
# [15] = system: Pseudomonas aeruginosa; test: Antibacterial activity against Pseudomonas aeruginosa; type: functional
# [16] = system: Staphylococcus epidermidis; test: Antibacterial activity against Staphylococcus epidermidis; type: functional
# [17] = system: Escherichia coli; test: Antibacterial activity against Escherichia coli; type: functional
# [18] = system: Staphylococcus aureus; test: Antibacterial activity against methicillin resistant Staphylococcus aureus; type: functional
# [19] = system: Micrococcus luteus; test: Antibacterial activity against Micrococcus luteus; type: functional
# [20] = system: Staphylococcus aureus; test: Antibacterial activity against methicillin resistant Staphylococcus aureus SK1 by Mueller-Hinton broth based two-fold serial dilution method; type: functional
# [21] = system: Staphylococcus aureus; test: Antibacterial activity against Staphylococcus aureus TISTR 1466 by Mueller-Hinton broth based two-fold serial dilution method; type: functional
# [22] = system: Enterococcus faecalis; test: Antibacterial activity against Streptococcus faecalis incubated for 8 to 12 hrs by Alamar blue reagent based microdilution broth method; type: functional; conditions: time 8-12 hrs
# [23] = system: Pseudomonas aeruginosa; test: Antibacterial activity against Pseudomonas aeruginosa incubated for 8 to 12 hrs by Alamar blue reagent based microdilution broth method; type: functional; conditions: time 8-12 hrs
# [24] = system: Bacillus subtilis; test: Antibacterial activity against Bacillus subtilis incubated for 8 to 12 hrs by Alamar blue reagent based microdilution broth method; type: functional; conditions: time 8-12 hrs
# [25] = system: Staphylococcus aureus; test: Antibacterial activity against Staphylococcus aureus TISTR 517 incubated for 8 to 12 hrs by Alamar blue reagent based microdilution broth method; type: functional; conditions: time 8-12 hrs
# [26] = system: Salmonella typhi; test: Antibacterial activity against Salmonella typhi incubated for 8 to 12 hrs by Alamar blue reagent based microdilution broth method; type: functional, Salmonella enterica subsp. enterica serovar Typhi; conditions: Salmonella enterica; time 8-12 hrs
# [27] = system: Staphylococcus aureus; test: Antibacterial activity against Staphylococcus aureus TISTR 517 by Mueller-Hinton broth based two-fold serial dilution method; type: functional
# [28] = system: Escherichia coli; test: Antibacterial activity against Escherichia coli ATCC 25922 by Mueller-Hinton broth based two-fold serial dilution method; type: functional
# [29] = system: Listeria monocytogenes; test: Antibacterial activity against Listeria monocytogenes DMST 17303 by Mueller-Hinton broth based two-fold serial dilution method; type: functional
# [30] = system: Staphylococcus epidermidis; test: Antibacterial activity against Staphylococcus epidermidis DMST 15505 by Mueller-Hinton broth based two-fold serial dilution method; type: functional
# [31] = system: Bacillus subtilis; test: Antibacterial activity against Bacillus subtilis; type: functional
# [32] = system: Streptococcus pyogenes; test: Antibacterial activity against Streptococcus pyogenes DMST 17020 by Mueller-Hinton broth based two-fold serial dilution method; type: functional
# [33] = system: Staphylococcus aureus; test: Antibacterial activity against methicillin resistant Staphylococcus aureus SK1 incubated for 16 to 18 hrs by agar microdilution method; type: functional; conditions: time 16-18 hrs
# [34] = system: Bacillus cereus; test: Antibacterial activity against Bacillus cereus; type: functional
# [35] = system: Staphylococcus epidermidis; test: Antibacterial activity against Staphylococcus epidermis ATCC 12228 by Mueller-Hinton broth based two-fold serial dilution method; type: functional
# [36] = system: Staphylococcus aureus; test: Antibacterial activity against methicillin resistant Staphylococcus aureus by liquid dilution method; type: functional
# [37] = system: Bacillus subtilis; test: Antibacterial activity against Bacillus subtilis TISTR 008 by Mueller-Hinton broth based two-fold serial dilution method; type: functional
# [38] = system: Micrococcus luteus; test: Antibacterial activity against Micrococcus luteus TISTR 884 by Mueller-Hinton broth based two-fold serial dilution method; type: functional
# [39] = Lipophilicity, logP of the compound; type: physicochemical; conditions: octanol/water
# [40] = system: Vibrio rotiferianus; test: Antibacterial activity against Vibrio rotiferianus MCCC E385; type: functional
# [41] = system: Vibrio vulnificus; test: Antibacterial activity against Vibrio vulnificus MCCC E1758; type: functional
# [42] = system: Vibrio campbellii; test: Antibacterial activity against Vibrio campbellii MCCC E333; type: functional
# [43] = system: Escherichia coli; test: Antibacterial activity against Escherichia coli NIHJ K 12; type: functional
# [44] = system: Staphylococcus aureus; test: Antibacterial activity against Staphylococcus aureus NIHJ 209p; type: functional
# [45] = system: Vibrio harveyi; test: Antibacterial activity against Vibrio harveyi SZ-1 incubated for 24 hrs by oxford cup method; type: functional
# [46] = system: Vibrio harveyi; test: Antibacterial activity against Vibrio harveyi 1.8690 incubated for 24 hrs by oxford cup method; type: functional
# [47] = system: Salmonella typhimurium; test: Antibacterial activity against Salmonella typhimurium TISTR 292 by Mueller-Hinton broth based two-fold serial dilution method; type: functional, Salmonella enterica subsp. enterica serovar Typhimurium; conditions: Salmonella enterica
# [48] = system: Bacillus cereus; test: Antibacterial activity against Bacillus cereus TISTR 688 by Mueller-Hinton broth based two-fold serial dilution method; type: functional
smiles,measurement,setting,value
CC1(C)CC(O)Oc2cc(O)c3c(=O)c4cccc(O)c4oc3c21 (stereo not given),MIC,[1],16 µg/mL
same,MIC,[2],32 µg/mL
same,MIC,[3],32 µg/mL
same,MIC,[4],16 µg/mL
same,MIC,[5],32 µg/mL
same,MIC,[6],16 µg/mL
CC(C)=CCc1c(O)cc(O)c2c(=O)c3c(CC=C(C)C)c(O)ccc3oc12 [GERONTOXANTHONE H],MIC,[7],1.56 µg/mL
same,MIC,[8],1.56 µg/mL
same,MIC,[9],1.56 µg/mL
same,MIC,[10],1.56 µg/mL
same,MIC,[11],1.56 µg/mL
same,MIC,[12],1.56 µg/mL
same,MIC,[13],1.56 µg/mL
COc1c(O)cc2oc3cc(O)c(CC=C(C)C)c(O)c3c(=O)c2c1CC=C(C)C [MANGOSTIN],MIC,[14],3.13 µg/mL
same,MIC,[15],12.5 µg/mL
same,MIC,[16],1.56 µg/mL
same,MIC,[17],12.5 µg/mL
same,MIC,[18],6.25 µg/mL
same,MIC,[19],1 µg/mL
C=CC(C)(C)c1cc(O)c2oc3c(O)cccc3c(=O)c2c1O,MIC,[14],6.25 µg/mL
same,MIC,[18],3.13 µg/mL
CC(C)=CCc1c(O)cc2oc3c(c(=O)c2c1O)C[C@H](CC=C(C)C)C(=O)[C@@]3(O)CC=C(C)C,MIC,[20],2 µg/mL
same,MIC,[21],2 µg/mL
CC(C)=CCC/C(C)=C/Cc1c2c(c3oc4c(O)cccc4c(=O)c3c1O)C=CC(C)(C)O2,MIC,[22],18.7 µg/mL
same,MIC,[23],> 50 µg/mL
same,MIC,[24],4.6 µg/mL
same,MIC,[25],2.3 µg/mL
same,MIC,[26],4.6 µg/mL
CC(C)=CCc1c2c(c(O)c3c(=O)c4ccc(O)c(O)c4oc13)C=CC(C)(C)O2,MIC,[22],1.1 µg/mL
same,MIC,[23],9.3 µg/mL
same,MIC,[24],1.1 µg/mL
same,MIC,[25],1.1 µg/mL
same,MIC,[26],1.1 µg/mL
COc1c(O)cc2oc3cc4c(c(O)c3c(=O)c2c1CC=C(C)C)CC(C(C)(C)O)O4 (stereo not given),MIC,[27],12.5 µg/mL
same,MIC,[28],25 µg/mL
same,MIC,[29],0.78 µg/mL
same,MIC,[30],25 µg/mL
same,MIC,[31],2 µg/mL
same,MIC,[32],3.13 µg/mL
same,MIC,[33],4 µg/mL
same,MIC,[19],12.5 µg/mL
same,MIC,[34],8 µg/mL
C=CC(C)(C)c1c(O)c(CC=C(C)C)c(O)c2c(=O)c3ccc(O)c(O)c3oc12 [GERONTOXANTHONE I],MIC,[22],3.13 µg/mL
same,MIC,[23],> 50 µg/mL
same,MIC,[24],2.5 µg/mL
same,MIC,[25],1.1 µg/mL
same,MIC,[18],3.13 µg/mL
same,MIC,[19],6.25 µg/mL
same,MIC,[26],1.1 µg/mL
COc1c(O)cc2oc3cc(O)cc(O)c3c(=O)c2c1C/C=C(\C)CCC=C(C)C [RUBRAXANTHONE],MIC,[14],12 µg/mL
same,MIC,[35],4 µg/mL
same,MIC,[36],1.25 µg/mL
same,MIC,[37],1 µg/mL
same,MIC,[38],2 µg/mL
C=CC(C)(C)c1c(O)cc2oc3c(O)c4c(cc3c(=O)c2c1O)C=CC(C)(C)O4 [GERONTOXANTHONE B],MIC,[7],12.5 µg/mL
same,MIC,[8],> 25 µg/mL
same,MIC,[12],25 µg/mL
COc1cc2c(=O)c3c(O)cc(O)cc3oc2cc1O [ALLOATHYRIOL],MIC,[2],4 µg/mL
same,logP,[39],1.74
COc1cc2c(=O)c3c(O)cccc3oc2c(O)c1OC,MIC,[1],16 µg/mL
same,logP,[39],2.09
same,MIC,[3],16 µg/mL
CC(C)=CCc1c(O)cc2oc3c(CC=C(C)C)c(O)c(O)c(CC=C(C)C)c3c(=O)c2c1O [GARCINONE E],MIC,[40],15.6 µg/mL
same,MIC,[41],15.6 µg/mL
same,MIC,[36],25 µg/mL
same,MIC,[42],31.2 µg/mL
same,MIC,[43],25 µg/mL
same,MIC,[44],12.5 µg/mL
C=CC(C)(C)c1cc(O)c2oc3c(O)c(O)ccc3c(=O)c2c1O,MIC,[36],25 µg/mL
same,MIC,[43],25 µg/mL
same,MIC,[44],12.5 µg/mL
COc1cc(O)cc2c1C(=O)c1c(O)cc(C)cc1C2=O [QUESTIN],MIC,[45],< 50 µg/mL
same,MIC,[46],< 50 µg/mL
COc1c(O)cc2oc3cc(O)c(CC=C(C)C)c(O)c3c(=O)c2c1C/C=C(\C)CCC=C(C)C [COWANIN],MIC,[35],2 µg/mL
same,MIC,[37],4 µg/mL
same,MIC,[20],2 µg/mL
same,MIC,[21],32 µg/mL
same,MIC,[47],64 µg/mL
same,MIC,[48],32 µg/mL
same,MIC,[38],4 µg/mL
